In article PMC6844382, “Design, synthesis and evaluation of quinolinone derivatives containing dithiocarbamate moiety as multifunctional AChE inhibitors for the treatment of Alzheimer’s disease” (Journal of Enzyme Inhibition and Medicinal Chemistry, 2019):
Read-outs that look alike come from different tables or passages of the source.

How the values were obtained:
[1] = target: T1, eeAChE (Electrophorus electricus, UniProt O42275); test: In vitro inhibition of eeAChE (Ellman method); assay type: biochemical, electric eel; conditions: for inhibition at 10 µM: read-out: eeAChE Inhibition (%), inhibitor at 10 μM
T1 construct: eeAChE (from electric eel); purchased Sigma-Aldrich (St. Louis, MO, USA); host or cells: electric eel
Procedure: (§1) The in vitro inhibitory activities of test compounds against AChE and BuChE were determined by the spectrophotometric method of Ellman[25]. […] For each assay, 160 μL of 1.5 mM DTNB, 50 μL of AChE (0.22 U/mL for eeAChE; 0.05 U/mL for hAChE) or eqBuChE (0.12 U/mL) were incubated with 10 μL of different concentrations of test compounds at 37 °C for 6 min.

[2] = target: T2, eqBuChE (Equus caballus, UniProt P81908); test: In vitro inhibition of eqBuChE (Ellman method); assay type: biochemical, equine; conditions: for inhibition at 10 µM: read-out: eqBuChE Inhibition (%)
T2 construct: eqBuChE (from equine serum); purchased Sigma-Aldrich (St. Louis, MO, USA); host or cells: equine serum
Procedure: as §1

[3] = from PAMPA-BBB Pe
Procedure: (§2) Afterwards, the acceptor filter plate was carefully placed on the donor plate to make the coated membrane touch both donor solution and acceptor buffer. […] Pe was calculated by the following expression: Pe = {−VdVa/[(Vd + Va)At]}ln (1-drugacceptor/drugequilibrium), where Vd is the volume of donor well, Va is volume in acceptor well, A is the filter area, t is the permeation time, drugacceptor is the absorbance obtained in the acceptor well and drugequilibrium is the theoretical equilibrium absorbance. Each compound was analysed at five wavelengths in four wells at least three independent runs, and the results were expressed as mean ± SD.

[4] = in vitro; conditions: PAMPA
Procedure: as §2

[5] = target: T3, AChE-induced Aβ1-42 aggregation (Electrophorus electricus, UniProt O42275); test: Inhibition of AChE-induced Aβ1-42 aggregation (ThT assay); assay type: biochemical; conditions: inhibitor 100 μM; thioflavin-T fluorescence
T3 construct: eeAChE (from electric eel); purchased eeAChE: Sigma-Aldrich (St. Louis, MO, USA); Aβ1-42: Royobiotech Co., Ltd (Shanghai, China)
Procedure: 1, 1, 1, 3, 3, 3-hexafluoro-2-propanol (HFIP) and Thioflavin T (ThT) were obtained from TCI (Shanghai) Development. β-Amyloid1-42 (Aβ1-42), supplied as trifluoroacetate salt, and eeAChE were purchased from Royobiotech Co., Ltd (Shanghai, China) and Sigma-Aldrich (St. Louis, MO, USA), respectively. For co-incubation experiments, aliquots of Aβ1-42 peptide and AChE in presence or absence of the test compounds were incubated for 48 h at 37 °C. […] The percent inhibition of the AChE-induced Aβ aggregation due to the presence of inhibitor was calculated by the following formula: 100 – (IFi/IFo*100), where IFi and IFo are the fluorescence intensities obtained for Aβ1-42 aggregation in the presence and in the absence of inhibitor, respectively. Each assay was run in triplicate and each reaction was repeated at least three independent times.

[6] = target: T4, self-induced Aβ1-42 aggregation (Homo sapiens, UniProt P05067); test: Inhibition of self-induced Aβ1-42 aggregation (ThT assay); assay type: biochemical; conditions: read-out: Inhibition of Aβ1–42 aggregation (%) Self-induced
T4 construct: Aβ1-42 was obtained from Royobiotech Co., Ltd (Shanghai, China); purchased Royobiotech Co., Ltd (Shanghai, China)
Procedure: The inhibitory activities of compounds 4c-f and 9a-b on self-induced Aβ1-42 aggregation were also measured by the ThT assay. HFIP and ThT were purchased from TCI (Shanghai) Development. Aβ1-42 was obtained from Royobiotech Co., Ltd (Shanghai, China). The monomeric Aβ1-42 samples were prepared by HFIP and diluted with a 50 mM phosphate buffer (pH 7.4) to give a 25 μM solution. The test compound was dissolved in DMSO (250 μM) for storage and needed not to be diluted prior to use. […]. Then, 200 μL of 5 μM ThT in 50 mM glycine-NaOH buffer (pH 8.0) was added, and the percent inhibition was calculated by the method same as that of AChE-induced Aβ1–42 experiment.

[7] = target: hAChE (Homo sapiens, UniProt P22303); test: In vitro inhibition of hAChE (Ellman method); assay type: biochemical; parameters: Acetylcholinesterase (AChE, from electric eel and human erythrocytes); purchased Sigma-Aldrich (St. Louis, MO, USA); host or cells: human erythrocytes
Procedure: as §1

[8] = means ± SD of three experiments

T2 sequence (P81908 whole entry): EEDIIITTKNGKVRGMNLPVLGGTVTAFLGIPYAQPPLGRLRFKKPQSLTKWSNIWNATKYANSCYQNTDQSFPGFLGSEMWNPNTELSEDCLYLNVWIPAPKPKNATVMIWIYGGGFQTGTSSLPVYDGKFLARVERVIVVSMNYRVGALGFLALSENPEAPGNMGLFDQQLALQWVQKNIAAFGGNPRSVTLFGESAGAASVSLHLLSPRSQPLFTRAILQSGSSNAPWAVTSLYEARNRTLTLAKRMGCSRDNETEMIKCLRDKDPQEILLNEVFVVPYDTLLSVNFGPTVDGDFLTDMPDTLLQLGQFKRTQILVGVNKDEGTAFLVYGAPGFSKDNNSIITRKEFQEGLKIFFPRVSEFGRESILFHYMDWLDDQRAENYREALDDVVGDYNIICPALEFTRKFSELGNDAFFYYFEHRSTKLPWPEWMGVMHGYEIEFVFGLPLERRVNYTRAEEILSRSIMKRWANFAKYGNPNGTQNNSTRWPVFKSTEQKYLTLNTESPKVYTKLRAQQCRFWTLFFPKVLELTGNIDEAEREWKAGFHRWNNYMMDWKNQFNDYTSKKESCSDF
Sequence of hAChE (P22303 32-617 isoform P22303-2 limits assumed): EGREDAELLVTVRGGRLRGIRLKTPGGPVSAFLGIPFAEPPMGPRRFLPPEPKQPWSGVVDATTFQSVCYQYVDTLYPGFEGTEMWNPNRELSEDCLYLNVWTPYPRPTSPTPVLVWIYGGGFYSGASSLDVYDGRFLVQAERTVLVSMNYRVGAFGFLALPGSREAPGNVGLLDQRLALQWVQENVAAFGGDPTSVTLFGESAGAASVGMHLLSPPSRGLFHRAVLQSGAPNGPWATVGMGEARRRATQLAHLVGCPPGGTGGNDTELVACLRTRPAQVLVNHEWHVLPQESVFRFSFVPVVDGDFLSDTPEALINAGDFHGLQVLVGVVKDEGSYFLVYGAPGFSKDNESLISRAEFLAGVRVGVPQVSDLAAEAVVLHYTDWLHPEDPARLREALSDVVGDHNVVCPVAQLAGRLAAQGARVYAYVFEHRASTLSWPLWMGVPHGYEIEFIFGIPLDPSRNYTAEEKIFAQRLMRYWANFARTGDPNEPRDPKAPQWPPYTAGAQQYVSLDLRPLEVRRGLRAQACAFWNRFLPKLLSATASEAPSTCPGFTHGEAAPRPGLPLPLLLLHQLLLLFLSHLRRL
T4 sequence (P05067 672-713): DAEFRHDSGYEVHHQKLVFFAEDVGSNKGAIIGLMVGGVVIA
T1 sequence (O42275 24-633): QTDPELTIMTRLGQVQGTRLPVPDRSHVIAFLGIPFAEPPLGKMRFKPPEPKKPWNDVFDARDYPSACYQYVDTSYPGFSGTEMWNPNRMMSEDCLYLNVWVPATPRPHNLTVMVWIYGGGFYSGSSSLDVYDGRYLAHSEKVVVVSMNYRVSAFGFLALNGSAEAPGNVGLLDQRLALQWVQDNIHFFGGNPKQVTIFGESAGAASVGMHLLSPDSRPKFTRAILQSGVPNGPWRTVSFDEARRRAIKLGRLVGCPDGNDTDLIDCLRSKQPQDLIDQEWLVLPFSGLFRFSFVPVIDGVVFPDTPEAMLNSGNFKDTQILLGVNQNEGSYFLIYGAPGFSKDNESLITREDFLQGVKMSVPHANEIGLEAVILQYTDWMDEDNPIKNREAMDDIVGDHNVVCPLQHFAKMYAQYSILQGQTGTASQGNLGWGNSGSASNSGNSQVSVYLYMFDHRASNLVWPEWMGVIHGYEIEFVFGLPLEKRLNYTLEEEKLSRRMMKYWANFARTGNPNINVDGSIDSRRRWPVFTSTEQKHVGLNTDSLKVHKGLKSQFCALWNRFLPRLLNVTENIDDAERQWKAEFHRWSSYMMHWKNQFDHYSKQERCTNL
T3 sequence (O42275 24-633): as above

Row | Compound | inhibition at 10 µM [1, 8] | inhibition at 10 µM [2] | Prediction of penetration into CNS [3] | Papp at 18 h, 25 μg/mL [4] | IC50 [1] | inhibition at 100 µM [5] | inhibition at 25 µM [6] | IC50 [7] | fold less inhibitory activity than compound 4c on AChE ([1]; ratio of eeAChE IC50 values) | eeAChE Inhibition (%) ([1]; inhibitor at 10 μM, means ± SD of three experiments, 10 µM) | IC50 [2] | inhibition at 25 µM ([6]; inhibitor 25 μM, thioflavin-T fluorescence)
1 | CN1CCN(C(=S)SCCCCOc2ccc3ccc(=O)[nH]c3c2)CC1 [4k, 4-((2-oxo-1,2-dihydroquinolin-7-yl)oxy)butyl 4-methylpiperazine-1-car-bodithioate] | 23.1 ± 5.54% | 28.6 ± 3.44% | CNS+ (CNS + is predicted as high BBB permeation with Pe (×10^6 cm/s) > 3.33) | 4.54 ± 0.84 ×10⁻⁶ cm/s |  |  |  |  |  |  |  | 
2 | Cc1cc(=O)[nH]c2cc(OCCCCSC(=S)N3CCCCC3)ccc12 [9a, 4-((4-methyl-2-oxo-1,2-dihydroquinolin-7-yl)oxy)butylpiperidine-1-carbodithioate] |  | 18.3 ± 3.15% | CNS+ (CNS + is predicted as high BBB permeation with Pe (×10^6 cm/s) > 3.33) | 8.79 ± 2.1 ×10⁻⁶ cm/s | 300 ± 120 nM | 14.2 ± 2.85% | 33.4 ± 4.85% | 760 ± 100 nM |  |  |  | 
3 | CC1CCN(C(=S)SCCCCOc2ccc3ccc(=O)[nH]c3c2)CC1 [4f, 4-((2-oxo-1,2-dihydroquinolin-7-yl)oxy)butyl 4-methylpiperidine-1-carbodithio-ate] |  | 37.2 ± 1.22% | CNS+ (CNS + is predicted as high BBB permeation with Pe (×10^6 cm/s) > 3.33) | 6.3 ± 0.86 ×10⁻⁶ cm/s | 690 ± 220 nM | 12.1 ± 3.18% | 20.4 ± 3.22% | 1210 ± 330 nM | 3 fold |  |  | 
4 | Cc1c(C)c2ccc(OCCCCSC(=S)N3CCCCC3)cc2[nH]c1=O [9b, 4-((3,4-dimethyl-2-oxo-1,2-dihydroquinolin-7-yl)oxy)butylpiperidine-1-carbodithioate] |  | 21.2 ± 1.6% | CNS+ (CNS + is predicted as high BBB permeation with Pe (×10^6 cm/s) > 3.33) | 8.67 ± 1.76 ×10⁻⁶ cm/s | 340 ± 10 nM | 24.4 ± 3.03% | 35.3 ± 2.17% | 390 ± 10 nM |  |  |  | 
5 | O=c1ccc2ccc(OCCCCCSC(=S)N3CCCCC3)cc2[nH]1 [4d, 5-((2-oxo-1,2-dihydroquinolin-7-yl)oxy)pentyl piperidine-1-carbodithioate] |  | 20.9 ± 2.61% | CNS+ (CNS + is predicted as high BBB permeation with Pe (×10^6 cm/s) > 3.33) | 8.82 ± 1.34 ×10⁻⁶ cm/s | 240 ± 20 nM | 24.1 ± 3.04% | 26 ± 3.01% | 570 ± 10 nM |  |  |  | 
6 | CC(=O)[C@H]1CC[C@H]2[C@@H]3CCC4=CC(=O)CC[C@]4(C)[C@H]3CC[C@]12C [Progesterone, reference compound] |  |  |  | 10.4 ± 1.9 ×10⁻⁶ cm/s |  |  |  |  |  |  |  | 
7 | O=c1ccc2ccc(OCCCCSC(=S)N3CCCC3)cc2[nH]1 [4m, 4-((2-oxo-1,2-dihydroquinolin-7-yl)oxy)butyl pyrrolidine-1-carbodithioate] | < 50% | 7.63 ± 0.92% | CNS+ (CNS + is predicted as high BBB permeation with Pe (×10^6 cm/s) > 3.33) | 10 ± 2.63 ×10⁻⁶ cm/s |  |  |  |  |  | 31.43 ± 1.65% |  | 
8 | O=c1ccc2ccc(OCCCCSC(=S)N3CCC(O)CC3)cc2[nH]1 [4i, 4-((2-oxo-1,2-dihydroquinolin-7-yl)oxy)butyl 4-hydroxypiperidine-1-carbodithio-ate] | 20.2 ± 3.27% | 15.8 ± 2.45% | CNS± (CNS ± is uncertain for BBB permeation with 1.51 < Pe (×10^6 cm/s) < 3.33) | 2.83 ± 0.65 ×10⁻⁶ cm/s |  |  |  |  |  |  |  | 
9 | O=c1ccc2ccc(OCCCCSC(=S)N3CCOCC3)cc2[nH]1 [4l, 4-((2-oxo-1,2-dihydroquinolin-7-yl)oxy)butyl morpholine-4-carbodithioate] | 12.3 ± 1.76% | 30.5 ± 4.11% | CNS+ (CNS + is predicted as high BBB permeation with Pe (×10^6 cm/s) > 3.33) | 7.35 ± 1.05 ×10⁻⁶ cm/s |  |  |  |  |  |  |  | 
10 | CC(C)C1CCN(C(=S)SCCCCOc2ccc3ccc(=O)[nH]c3c2)CC1 [4g, 4-((2-oxo-1,2-dihydroquinolin-7-yl)oxy)butyl 4-isopropylpiperidine-1-carbodithi-oate] |  | 31.4 ± 3.15% | CNS+ (CNS + is predicted as high BBB permeation with Pe (×10^6 cm/s) > 3.33) | 7.14 ± 1.97 ×10⁻⁶ cm/s | 9610 ± 1120 nM |  |  |  |  |  |  | 
11 | O=c1ccc2ccc(OCCCCSC(=S)N3CCC(CO)CC3)cc2[nH]1 [4j, 4-((2-oxo-1,2-dihydroquinolin-7-yl)oxy)butyl 4-(hydroxymethyl)piperidine-1-ca-rbodithioate] | 14.5 ± 2.44% | 23.9 ± 2.03% | CNS± (CNS ± is uncertain for BBB permeation with 1.51 < Pe (×10^6 cm/s) < 3.33) | 3.25 ± 0.82 ×10⁻⁶ cm/s |  |  |  |  |  |  |  | 
12 | O=c1ccc2ccc(OCCCCCCSC(=S)N3CCCCC3)cc2[nH]1 [4e, 6-((2-oxo-1,2-dihydroquinolin-7-yl)oxy)hexyl piperidine-1-carbodithioate] |  | 17.5 ± 2.17% | CNS+ (CNS + is predicted as high BBB permeation with Pe (×10^6 cm/s) > 3.33) | 9.85 ± 0.98 ×10⁻⁶ cm/s | 350 ± 20 nM | 20.3 ± 2.21% | 25.8 ± 1.43% | 380 ± 20 nM |  |  |  | 
13 | O=c1ccc2ccc(OCCCCSC(=S)N3CCC(N4CCCCC4)CC3)cc2[nH]1 [4h, 4-((2-oxo-1,2-dihydroquinolin-7-yl)oxy)butyl [1,4′-bipiperidine]-1′-carbodithio-ate] |  |  | CNS+ (CNS + is predicted as high BBB permeation with Pe (×10^6 cm/s) > 3.33) | 6.42 ± 1.02 ×10⁻⁶ cm/s | 3800 ± 350 nM |  |  |  |  |  | 2000 ± 230 nM | 
14 | O=c1ccc2ccc(OCCSC(=S)N3CCCCC3)cc2[nH]1 [4a, 2-((2-oxo-1,2-dihydroquinolin-7-yl)oxy)ethyl piperidine-1-carbodithioate] | 45.3 ± 0.35% | 16.7 ± 2.36% | CNS+ (CNS + is predicted as high BBB permeation with Pe (×10^6 cm/s) > 3.33) | 8.57 ± 1.23 ×10⁻⁶ cm/s |  |  |  |  |  |  |  | 
15 | O=c1ccc2ccc(OCCCSC(=S)N3CCCCC3)cc2[nH]1 [4b, 3-((2-oxo-1,2-dihydroquinolin-7-yl)oxy)propyl piperidine-1-carbodithioate] |  | 16.6 ± 4.01% | CNS+ (CNS + is predicted as high BBB permeation with Pe (×10^6 cm/s) > 3.33) | 8.78 ± 1.11 ×10⁻⁶ cm/s | 3960 ± 710 nM |  |  |  |  |  |  | 
16 | COc1cc(/C=C/C(=O)CC(=O)/C=C/c2ccc(O)c(OC)c2)ccc1O [Curcumin, reference compound] |  |  |  |  |  |  |  |  |  |  |  | 37.3 ± 2.76%
